Results taken from US20130109581A1, “POSITIVELY CHARGED SPECIES AS BINDING REAGENTS IN THE SEPARATION OF PROTEIN AGGREGATES FROM MONOMERS” (priority 2009, published 2013).

Columns and labels:
Abeta 1-42 globulomer = biological target: T1, Abeta 1-42 globulomer (Homo sapiens, UniProt P05067); assay: Globulomer capture assay in CSF (Example 6); type: binding
T1 construct: beta amyloid (1-42) was monomerized with incubation in hexafluoroisopropanol
Procedure: (§1) A series of new potential aggregate-specific binding reagents were designed as shown below and conjugated onto magnetic Dynal M270 beads as described in Example 2. Typically 7-12 nmol of ligand (each candidate aggregate-specific binding reagent) was coated onto 1 mg of beads.
(§2) Aliquots of the beads (typically 3 ul) were added to wells of a 96 well plate, followed by sample (with or without Abeta 1-42 globulomer (an Abeta42 oligomer model) spiked in 80:20 CSF:TBSTT, typically 125 ul). The plate was sealed and incubated for 1 hour at 37° C. with shaking. The plate was washed with aqueous solutions of detergent (typically polyethylene glycol sorbitan monolaurate and n-tetradecyl-N,N-dimethyl-3-ammonio-1-propanesulfonate) to remove ubound material and the residual buffer removed. A denaturing solution (typically 0.1-0.15 N NaOH) was added to each well and the plate heated to 80° C. for 30 min with shaking. After cooling the plate to room temperature, a neutralizing buffer (typically 0.12-0.18 M NaH2PO3 in 0.4% TWEEN20,) was added and the plate was shaken briefly at room temperature. The bead eluate was analyzed using either an Aβ42-specific ELISA or the MSD® 96-Well MULTI-SPOT® Human/Rodent [4G8] Abeta Triplex Ultra-Sensitive Assay from Meso Scale Discovery (Gaithersburg, Md.). For the Aβ42-specific assay, the samples were eluted from the beads and a detection antibody (4G8 HRP) was added to a plate bearing the Aβ42-specific antibody 12F4. The plate was incubated for 1 hour, washed, the substrate was added (SuperSignal West Femto Maximum Sensitivity Substrate from Thermo Fisher, Rockville, Md.), and the luminescence was measured. The MSD plate assay was performed in a similar fashion, according to the manufacturer's protocol.
(§3) In this experiment the preferred number of charges within a given scaffold was identified. An Ala/Lys peptide framework was utilized, where the inclusion of each Lys residue increases the peptides' net charge by +1. Six hexapeptides with increasing charge (+1→+6), AAAKAA, AAKKAA, AAKKKA, AKKKKA, AKKKKK, and KKKKKK, were prepared and conjugated on the beads. The ability of these beads to capture Abeta 1-42 globulomer spiked at 1 ng/mL into CSF was tested, and the result is shown in FIG. 25. The globulomer capture level (“42 1 ng/ml” or the closed bars) was compared to the background signal of Abeta 1-42 detected in the unspiked CSF (“42 0 ng/ml”) and the background signal of Abeta 1-40 detected in unspiked CSF (“40 0 ng/ml”) or CSF spiked with AB42 oligomers “40 1 ng/ml”. The charge density, as conjugated to the magnetic beads, of each reagent evaluated in this experiment is shown below in Table 8.

Abeta 1-40 monomer = biological target: T2, Abeta 1-40 monomer (Homo sapiens, UniProt P05067); assay: Globulomer capture assay in CSF (Example 6): Abeta 1-40 noise; type: binding; conditions: Abeta 1-40 signal (noise), CSF samples
T2 construct: Abeta 1-40 monomer capture level; from tissue; host or cells: cerebrospinal fluid (matrix of the assay)
T2 sequence (P05067 672-711 limits assumed): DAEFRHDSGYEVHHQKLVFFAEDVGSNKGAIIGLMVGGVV
Procedure: as §1, §2, §3

[1] = biological target: T3, Aβ40 aggregates in AD CSF (Homo sapiens, UniProt P05067); assay: Discrimination between AD and normal CSF; type: binding; conditions: FIG. 39
T3 construct: from tissue; host or cells: pooled cerebrospinal fluid (normal or AD)
T3 sequence (P05067 672-711 limits assumed): as above
Procedure: The Ab42 aggregates were prepared as previously described: fibrils were prepared per Stine et al (JBC 2003, 278, p11612), globulomers were prepared per Barghorn et al (J Neurology 2005 95 p834), ADDLs were prepared per Lambert et al (PNAS 1998, 95 p6448), and ASPDs were prepared per Noguchi et al (JBC 2009 284 p32895). Normal CSF was pooled from clinically characterized non-demented patient CSF samples. AD CSF was pooled from clinically-characterized AD patient samples. Alzheimer's Disease Brain Homogenate (ADBH) was prepared by sonication of clinically diagnosed AD patient brain samples in 0.2M.sucrose (1:10 w/v).
For the capture assay (Misfolded Protein Assay), aliquots of the beads (30 ul) were added to wells of a 96 well plate, followed by 125 ul of sample in 80:20 CSF:TBSTT. The plate was sealed and incubated for 1 h at 37 C with shaking. The plate was washed with TBST and the residual buffer removed. A denaturing solution (0.1 N NaOH) was added to each well and the plate heated to 80 C. for 30 min with shaking. After cooling the plate to RT, a neutralizing buffer (0.12 M NaH2PO3-0.4% TW20,) was added and the plate shaken briefly at RT. The assay was analyzed using the triplex Mesoscale Discovery ELISA kit for Aβ. The Aβ in the samples eluted from the beads were detected per the manufacturer's protocol.
For discriminating between AD and normal CSF, pooled normal CSF or pooled Alzheimer's Disease patient CSF, were assayed per the protocol described above.

prion protein = prion protein (Homo sapiens, UniProt P04156)

T1 sequence (P05067 672-713 limits assumed): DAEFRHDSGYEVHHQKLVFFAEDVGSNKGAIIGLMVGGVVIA

Nab-Nab-Nab-Nbn-Nab-Nbn [PSR1]
42:40 (signal:noise ratio) (Abeta 1-42 globulomer; 1 ng/ml average reading, ratio of 42 to 40): 4.1 | 42, 1 ng/ml average reading (Abeta 1-42 globulomer; Abeta 1-42 globulomer spiked at 1 ng/mL into CSF): 970.5 RLUs | 40, 1 ng/ml average reading (Abeta 1-40 monomer): 234.5 RLUs | Aβ40 signal in pooled AD CSF relative to normal pool [1]: higher Aβ40 signal in positive pooled AD CSF relative to unmatched normal pool | distinguishing control and vCJD brain homogenates, prion protein detected (prion protein): clearly distinguished between control and either vCJD or AD samples
